Patent US8557814B2, “mTOR inhibitor salt forms” (OSI Pharmaceuticals, LLC, priority 2008, dated 2013)
pIC50: −log10 of the molar value. Where a name gives a salt, the structure may show the parent alone. Read-outs that look alike come from different tables or passages of the source.

Experiments:
[1] = target: T1, mTOR (Homo sapiens, UniProt P42345); test: mTOR cell-based mechanistic assay: inhibition of phosphorylation of 4E-BP1 (T37/46) in MDA-MB-231 cells; conditions: 3 h treatment
T1 construct: endogenous in cells; host or cells: MDA-MB-231 cells
Description: MDA-MB-231 cells were plated in 96 well plates at 2×10^4 cells/well in 90 uL of Complete growth medium and incubated at 37° C. overnight in a CO2 incubator. […] Cell lysates' were transferred to a 96-well plate coated with 4E-BP1 antibodies to capture phospho-4E-BP1 (T37/46) and incubated overnight at 4° C. The amount of phospho-4E-BP1 in each well is further measured by incubating the wells with anti-rabbit phospho-4E-BP1 (T37/46) antibodies and a corresponding goat anti-rabbit IgG conjugated to HRP. The amount of HRP present in each well is measured by a chemiluminescence method, which corresponds to amount of phospho-4E-BP1 in each well. IC50 values were determined using a 6-point dose response curve.

[2] = Solubility in water; format: physicochemical
[3] = Vapor sorption analysis (DVS), hygroscopicity; format: physicochemical
[4] = Stability at 40° C. and 75% RH; format: physicochemical; conditions: 30 days at 40° C. and 75% RH

Question: With COc1cccc2cc(-c3nc([C@H]4CC[C@H](C(=O)O)CC4)n4ncnc(N)c34)[nH]c12 [trans-4-[4-amino-5-(7-methoxy-1H-indol-2-yl)-imidazo[5,1-f][1,2,4]triazin-7-yl]cyclohexanecarboxylic acid] as the compound, how does the pIC50 [1] read?
Answer: The pIC50 was about 6.00.

Question: Which solubility in water ([2]; sodium salt) does the source give for COc1cccc2cc(-c3nc([C@H]4CC[C@H](C(=O)O)CC4)n4ncnc(N)c34)[nH]c12 [Example 3, trans-4-[4-amino-5-(7-methoxy-1H-indol-2-yl)imidazo[5,1-f][1,2,4]triazin-7-yl]cyclohexanecarboxylic acid sodium salt] here?
Answer: The solubility in water was over 30 mg/mL.

Question: For COc1cccc2cc(-c3nc([C@H]4CC[C@H](C(=O)O)CC4)n4ncnc(N)c34)[nH]c12 [Example 1, trans-4-[4-amino-5-(7-methoxy-1H-indol-2-yl)imidazo[5,1-f][1,2,4]triazin-7-yl]cyclohexane carboxylic acid tromethamine salt], which “hygroscopicity (DVS)” value ([3]; at 90-95% RH) is on record?
Answer: The value was 2-4%.

Question: And the solubility in water [2]?
Answer: The solubility in water was “approximately 6 mg/mL”.

Question: What about the “stability (degradation)” value [4] of the same compound?
Answer: The value was “no significant degradation”.

Question: Which “hygroscopicity, weight gain (DVS)” value ([3]; from 0 to 95% RH) does the source give for “trans-4-[4-amino-5-(7-methoxy-1H-indol-2-yl)imidazo[5,1-f][1,2,4]triazin-7-yl]cyclohexane carboxylic acid calcium salt [Example 2]” here?
Answer: The value was 35%.
